Laboratory results taken from patent US20250243171A1, “QUINAZOLINE COMPOUNDS FOR TREATMENT OF DISEASE” (Arthrosi Therapeutics, Inc., priority 2021, published 2025).

How the values were obtained:
Experiment in all cases: EC50 assay: Ba/F3 stable cell proliferation (CCK-8, 72 h)
Format in all cases: cell-based
Ba/F3 stable cells [1] = target: T1, Ba/F3 stable cells (Homo sapiens, UniProt P00533, DUP768-770, cells depend on it); conditions: Ba/F3-EGFR D770-N771insSVD cells
T1 construct: EC50 Ba/F3-EGFR D770-N771insSVD; other: Ba/F3-EGFR D770-N771insSVD cells, 72 h, CCK-8
Summary of the method: (§1)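 Ba/F3 stable cells were seeded at 4,000 cells/90 μL/well in 96-well plates and held 2 h at 37° C. in 5% CO2, then given 10 μL of serially titrated compound (0.1% DMSO final). After 72 h at 37° C., CCK-8 reagent was added for 4 hours and absorbance read at 450 nm to derive EC50.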

Ba/F3 stable cells [2] = target: T2, Ba/F3 stable cells (Homo sapiens, UniProt P00533, DUP767-769, cells depend on it); conditions: Ba/F3-EGFR V769-D770insASV cells
T2 construct: EC50 Ba/F3-EGFR V769-D770insASV; other: Ba/F3-EGFR V769-D770insASV cells, 72 h, CCK-8
Summary of the method: as §1

Ba/F3 stable cells [3] = target: T3, Ba/F3 stable cells (Homo sapiens, UniProt P00533, INS763FQEA, cells depend on it); conditions: Ba/F3-EGFR A763-Y764insFQEA cells
T3 construct: EC50 Ba/F3-EGFR A763-Y764insFQEA; other: Ba/F3-EGFR A763-Y764insFQEA cells, 72 h, CCK-8
Summary of the method: as §1

Ba/F3 stable cells [4] = target: T4, Ba/F3 stable cells (Homo sapiens, UniProt P04626, DUP772-775, cells depend on it); conditions: Ba/F3-HER2 A775-G776insYVMA cells
T4 construct: EC50 Ba/F3-HER2 A775-G776insYVMA; other: Ba/F3-HER2 A775-G776insYVMA cells, 72 h, CCK-8
Summary of the method: as §1

Ba/F3 stable cells [5] = target: T5, Ba/F3 stable cells (Homo sapiens, UniProt P00533, DUP771-773, cells depend on it); conditions: Ba/F3-EGFR H773-V774insNPH cells
T5 construct: EC50 Ba/F3-EGFR H773-V774insNPH; other: Ba/F3-EGFR H773-V774insNPH cells, 72 h, CCK-8
Summary of the method: as §1

Ba/F3 stable cells [6] = target: T6, Ba/F3 stable cells (Homo sapiens, UniProt P00533, T790M/L858R, cells depend on it); conditions: Ba/F3-EGFR L858R-T790M cells
T6 construct: EC50 Ba/F3-EGFR L858R-T790M; other: Ba/F3-EGFR L858R-T790M cells, 72 h, CCK-8
Summary of the method: as §1

T2 sequence (P00533 with tags, fused parts or gaps DUP767-769): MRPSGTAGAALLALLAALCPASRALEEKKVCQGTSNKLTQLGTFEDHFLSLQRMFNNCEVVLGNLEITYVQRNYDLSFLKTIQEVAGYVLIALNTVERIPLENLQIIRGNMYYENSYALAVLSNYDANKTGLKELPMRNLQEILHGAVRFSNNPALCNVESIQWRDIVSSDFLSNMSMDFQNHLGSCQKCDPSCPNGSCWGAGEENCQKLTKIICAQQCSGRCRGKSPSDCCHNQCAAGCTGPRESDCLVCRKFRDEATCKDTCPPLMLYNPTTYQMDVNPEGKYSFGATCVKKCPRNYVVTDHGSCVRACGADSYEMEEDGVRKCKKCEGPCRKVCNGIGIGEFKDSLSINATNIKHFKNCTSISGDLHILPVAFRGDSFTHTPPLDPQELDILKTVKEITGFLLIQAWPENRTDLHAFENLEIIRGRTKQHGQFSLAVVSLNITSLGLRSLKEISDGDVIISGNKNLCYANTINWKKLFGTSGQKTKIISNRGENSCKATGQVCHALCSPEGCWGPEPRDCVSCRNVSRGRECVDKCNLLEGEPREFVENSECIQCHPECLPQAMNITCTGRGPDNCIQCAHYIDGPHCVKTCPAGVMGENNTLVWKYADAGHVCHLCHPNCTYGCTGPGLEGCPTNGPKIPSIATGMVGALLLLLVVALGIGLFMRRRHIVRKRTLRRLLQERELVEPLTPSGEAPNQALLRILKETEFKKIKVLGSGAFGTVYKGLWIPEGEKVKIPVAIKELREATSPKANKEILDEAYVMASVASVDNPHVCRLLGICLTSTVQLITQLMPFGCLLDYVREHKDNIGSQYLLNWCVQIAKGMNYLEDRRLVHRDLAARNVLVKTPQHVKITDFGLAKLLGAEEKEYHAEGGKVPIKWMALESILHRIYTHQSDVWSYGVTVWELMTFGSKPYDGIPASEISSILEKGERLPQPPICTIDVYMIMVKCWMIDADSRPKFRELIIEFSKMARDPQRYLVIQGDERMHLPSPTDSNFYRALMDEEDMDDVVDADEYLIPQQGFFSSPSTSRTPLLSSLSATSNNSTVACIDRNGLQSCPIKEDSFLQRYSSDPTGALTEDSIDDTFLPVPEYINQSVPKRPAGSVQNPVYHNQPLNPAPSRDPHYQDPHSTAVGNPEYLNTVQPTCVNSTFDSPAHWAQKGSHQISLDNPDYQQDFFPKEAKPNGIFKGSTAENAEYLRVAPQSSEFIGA
T5 sequence (P00533 with tags, fused parts or gaps DUP771-773): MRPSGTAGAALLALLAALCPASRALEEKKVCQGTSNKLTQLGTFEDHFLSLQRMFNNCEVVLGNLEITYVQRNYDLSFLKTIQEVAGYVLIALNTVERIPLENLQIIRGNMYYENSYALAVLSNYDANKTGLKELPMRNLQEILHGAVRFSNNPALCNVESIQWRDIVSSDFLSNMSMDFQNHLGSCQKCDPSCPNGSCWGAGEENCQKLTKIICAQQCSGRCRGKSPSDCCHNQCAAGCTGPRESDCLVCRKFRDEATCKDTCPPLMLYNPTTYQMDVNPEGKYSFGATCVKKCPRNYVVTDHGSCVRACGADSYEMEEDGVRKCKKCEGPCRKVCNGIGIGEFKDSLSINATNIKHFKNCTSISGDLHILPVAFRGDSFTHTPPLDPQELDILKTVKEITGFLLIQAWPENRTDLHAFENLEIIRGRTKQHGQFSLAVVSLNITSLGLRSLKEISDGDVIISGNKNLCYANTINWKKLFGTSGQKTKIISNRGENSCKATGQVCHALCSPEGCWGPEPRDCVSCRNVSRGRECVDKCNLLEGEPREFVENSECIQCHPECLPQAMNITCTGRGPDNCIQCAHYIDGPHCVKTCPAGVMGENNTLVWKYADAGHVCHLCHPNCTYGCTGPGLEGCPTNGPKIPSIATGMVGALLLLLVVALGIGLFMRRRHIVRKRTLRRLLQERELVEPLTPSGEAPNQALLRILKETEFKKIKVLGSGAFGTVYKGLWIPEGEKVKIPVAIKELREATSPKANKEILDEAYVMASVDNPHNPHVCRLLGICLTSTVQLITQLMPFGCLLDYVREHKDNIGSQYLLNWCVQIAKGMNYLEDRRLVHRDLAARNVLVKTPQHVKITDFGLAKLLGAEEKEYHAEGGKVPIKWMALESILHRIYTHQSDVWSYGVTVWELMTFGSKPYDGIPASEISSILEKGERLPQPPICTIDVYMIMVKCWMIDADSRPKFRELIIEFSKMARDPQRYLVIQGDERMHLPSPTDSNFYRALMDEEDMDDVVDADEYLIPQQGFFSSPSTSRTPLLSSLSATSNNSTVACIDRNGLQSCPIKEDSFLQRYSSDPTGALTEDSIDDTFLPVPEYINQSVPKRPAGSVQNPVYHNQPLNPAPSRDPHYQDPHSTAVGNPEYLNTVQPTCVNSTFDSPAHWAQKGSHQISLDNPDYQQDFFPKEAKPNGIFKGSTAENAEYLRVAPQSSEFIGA
T4 sequence (P04626 with tags, fused parts or gaps DUP772-775): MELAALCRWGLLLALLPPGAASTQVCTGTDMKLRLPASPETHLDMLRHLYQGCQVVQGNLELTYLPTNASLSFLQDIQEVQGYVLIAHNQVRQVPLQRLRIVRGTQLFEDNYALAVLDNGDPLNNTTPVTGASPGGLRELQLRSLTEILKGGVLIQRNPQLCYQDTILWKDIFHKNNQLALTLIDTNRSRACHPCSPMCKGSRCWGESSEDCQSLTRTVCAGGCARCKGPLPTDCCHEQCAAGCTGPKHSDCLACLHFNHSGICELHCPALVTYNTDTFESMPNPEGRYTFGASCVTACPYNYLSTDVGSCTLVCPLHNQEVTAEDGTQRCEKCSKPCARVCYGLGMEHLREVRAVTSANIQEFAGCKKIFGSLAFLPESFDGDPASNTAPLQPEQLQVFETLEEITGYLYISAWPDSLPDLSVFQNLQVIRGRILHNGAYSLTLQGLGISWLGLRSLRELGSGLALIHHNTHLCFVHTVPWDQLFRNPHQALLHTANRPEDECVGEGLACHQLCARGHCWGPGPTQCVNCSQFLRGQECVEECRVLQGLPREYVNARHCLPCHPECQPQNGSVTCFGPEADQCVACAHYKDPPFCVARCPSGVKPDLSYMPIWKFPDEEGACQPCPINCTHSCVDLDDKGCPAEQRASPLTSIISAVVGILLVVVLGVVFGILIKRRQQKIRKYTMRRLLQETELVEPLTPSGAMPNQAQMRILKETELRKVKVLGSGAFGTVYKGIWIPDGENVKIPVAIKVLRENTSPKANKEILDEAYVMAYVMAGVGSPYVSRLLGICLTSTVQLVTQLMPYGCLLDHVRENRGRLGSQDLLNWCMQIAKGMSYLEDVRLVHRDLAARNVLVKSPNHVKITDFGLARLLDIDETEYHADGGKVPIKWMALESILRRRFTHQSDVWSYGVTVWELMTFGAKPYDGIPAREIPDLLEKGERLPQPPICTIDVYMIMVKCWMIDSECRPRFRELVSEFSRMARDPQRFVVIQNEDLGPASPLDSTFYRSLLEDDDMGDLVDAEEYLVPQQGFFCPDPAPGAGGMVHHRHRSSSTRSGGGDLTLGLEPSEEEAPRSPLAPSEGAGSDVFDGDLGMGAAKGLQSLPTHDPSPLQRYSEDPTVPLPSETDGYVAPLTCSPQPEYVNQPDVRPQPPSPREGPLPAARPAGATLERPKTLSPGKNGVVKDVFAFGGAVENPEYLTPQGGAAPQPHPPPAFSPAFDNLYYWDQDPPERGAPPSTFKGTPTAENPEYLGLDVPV
T3 sequence (P00533 with tags, fused parts or gaps INS763FQEA): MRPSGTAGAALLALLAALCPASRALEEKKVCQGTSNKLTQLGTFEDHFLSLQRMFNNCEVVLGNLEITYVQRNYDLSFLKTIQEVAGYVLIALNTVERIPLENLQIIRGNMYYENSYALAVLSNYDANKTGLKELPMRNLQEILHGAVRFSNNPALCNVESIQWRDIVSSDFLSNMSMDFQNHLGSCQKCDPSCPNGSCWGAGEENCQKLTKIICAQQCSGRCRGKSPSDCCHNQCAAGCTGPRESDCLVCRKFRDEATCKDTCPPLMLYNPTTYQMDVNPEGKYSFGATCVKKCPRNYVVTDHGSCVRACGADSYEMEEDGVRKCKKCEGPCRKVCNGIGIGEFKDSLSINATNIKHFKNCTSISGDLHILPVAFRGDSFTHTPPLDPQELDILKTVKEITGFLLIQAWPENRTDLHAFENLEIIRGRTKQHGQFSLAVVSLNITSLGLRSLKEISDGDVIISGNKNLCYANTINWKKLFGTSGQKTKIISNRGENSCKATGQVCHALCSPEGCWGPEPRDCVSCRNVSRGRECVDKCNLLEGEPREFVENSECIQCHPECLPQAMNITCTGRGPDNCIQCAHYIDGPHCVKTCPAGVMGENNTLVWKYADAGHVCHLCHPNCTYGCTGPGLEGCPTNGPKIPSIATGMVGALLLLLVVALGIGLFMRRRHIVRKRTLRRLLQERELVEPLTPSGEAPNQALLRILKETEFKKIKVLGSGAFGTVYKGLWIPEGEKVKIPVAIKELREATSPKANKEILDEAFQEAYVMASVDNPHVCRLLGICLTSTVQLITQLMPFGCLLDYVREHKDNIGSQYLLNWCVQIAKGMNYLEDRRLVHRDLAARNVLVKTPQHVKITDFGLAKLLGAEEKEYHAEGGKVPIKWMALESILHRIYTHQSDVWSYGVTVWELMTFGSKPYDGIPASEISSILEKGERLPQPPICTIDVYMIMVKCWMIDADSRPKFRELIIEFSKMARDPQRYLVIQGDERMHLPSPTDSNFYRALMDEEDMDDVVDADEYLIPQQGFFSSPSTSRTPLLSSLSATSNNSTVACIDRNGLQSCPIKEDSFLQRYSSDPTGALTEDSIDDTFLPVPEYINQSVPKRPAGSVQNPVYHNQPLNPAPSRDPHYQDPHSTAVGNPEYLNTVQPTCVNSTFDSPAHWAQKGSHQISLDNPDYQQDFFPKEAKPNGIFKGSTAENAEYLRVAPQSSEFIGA

Compound	EC50 (Ba/F3 stable cells [1])	EC50 (Ba/F3 stable cells [2])	EC50 (Ba/F3 stable cells [3])	EC50 (Ba/F3 stable cells [4])	EC50 (Ba/F3 stable cells [5])	EC50 (Ba/F3 stable cells [6])
C=CC(=O)N1CCC(Oc2cc3c(Nc4cccc5cn[nH]c45)ncnc3cc2OC)CC1 [Compound 139, 1-(4-((4-((1H-indazol-7-yl)amino)-7-methoxyquinazolin-6-yl)oxy)piperidin-1-yl)prop-2-en-1-one]	> 1000 nM	> 1000 nM	≤ 200 nM	> 1000 nM	> 1000 nM	> 1000 nM
C=CC(=O)N1CCC(Oc2cc3c(Nc4ccc5cnccc5c4)ncnc3cc2OC)CC1 [Compound 140, 1-(4-((4-(isoquinolin-6-ylamino)-7-methoxyquinazolin-6-yl)oxy)piperidin-1-yl)prop-2-en-1-one]	> 1000 nM	> 1000 nM	> 1000 nM	> 1000 nM	> 1000 nM	> 1000 nM
C=CC(=O)N1CCC(Oc2cc3c(Nc4ccc5scnc5c4)ncnc3cc2OC)CC1 [Compound 142, 1-(4-((4-(benzo[d]thiazol-5-ylamino)-7-methoxyquinazolin-6-yl)oxy)piperidin-1-yl)prop-2-en-1-one]	> 1000 nM	≤ 200 nM	≤ 200 nM	≤ 200 nM	200 to 1000 nM	200 to 1000 nM
C=CC(=O)N1CCC(Oc2cc3c(Nc4ccc5nccnc5c4)ncnc3cc2OC)CC1 [Compound 144, 1-(4-((7-methoxy-4-(quinoxalin-6-ylamino)quinazolin-6-yl)oxy)piperidin-1-yl)prop-2-en-1-one]	> 1000 nM	> 1000 nM	200 to 1000 nM	> 1000 nM	> 1000 nM	> 1000 nM
C=CC(=O)N1CCC(Oc2cc3c(Nc4ccc5ncsc5c4)ncnc3cc2OC)CC1 [Compound 145, 1-(4-((4-(benzo[d]thiazol-6-ylamino)-7-methoxyquinazolin-6-yl)oxy)piperidin-1-yl)prop-2-en-1-one]	> 1000 nM	200 to 1000 nM	≤ 200 nM	> 1000 nM	200 to 1000 nM	200 to 1000 nM
C=CC(=O)N1CCC(Oc2cc3c(N4CCN(c5cccc(Cl)c5)CC4)ncnc3cc2OC)CC1 [Compound 147, 1-(4-((4-(4-(3-chlorophenyl)piperazin-1-yl)-7-methoxyquinazolin-6-yl)oxy)piperidin-1-yl)prop-2-en-1-one]	> 1000 nM	> 1000 nM	> 1000 nM	> 1000 nM	> 1000 nM	> 1000 nM
C=CC(=O)N1CCC(Oc2cc3c(Nc4ccc5[nH]ncc5c4)ncnc3cc2OC)CC1 [Compound 150, 1-(4-((4-((1H-indazol-5-yl)amino)-7-methoxyquinazolin-6-yl)oxy)piperidin-1-yl)prop-2-en-1-one]	> 1000 nM	200 to 1000 nM	≤ 200 nM	> 1000 nM	200 to 1000 nM	> 1000 nM
C=CC(=O)N1CCC(Oc2cc3c(Nc4cc5oc6ccccc6c5cc4OC)ncnc3cc2OC)CC1 [Compound 151, 1-(4-((7-methoxy-4-((2-methoxydibenzo[b,d]furan-3-yl)amino)quinazolin-6-yl)oxy)piperidin-1-yl)prop-2-en-1-one]	> 1000 nM	> 1000 nM	> 1000 nM	> 1000 nM	> 1000 nM	> 1000 nM
C=CC(=O)N1CCC(Oc2cc3c(Nc4ccc5c(c4)OCO5)ncnc3cc2OC)CC1 [Compound 152, 1-(4-((4-(benzo[d][1,3]dioxol-5-ylamino)-7-methoxyquinazolin-6-yl)oxy)piperidin-1-yl)prop-2-en-1-one]	200 to 1000 nM	200 to 1000 nM	≤ 200 nM	≤ 200 nM	200 to 1000 nM	200 to 1000 nM
C=CC(=O)N1CCC(Oc2cc3c(Nc4ccc5c(c4)CCC5)ncnc3cc2OC)CC1 [Compound 153, 1-(4-((4-((2,3-dihydro-1H-inden-5-yl)amino)-7-methoxyquinazolin-6-yl)oxy)piperidin-1-yl)prop-2-en-1-one]	200 to 1000 nM	≤ 200 nM	≤ 200 nM	200 to 1000 nM	200 to 1000 nM	200 to 1000 nM
C=CC(=O)N1CCC(Oc2cc3c(Nc4ccc5sc(C)nc5c4)ncnc3cc2OC)CC1 [Compound 155, 1-(4-((7-methoxy-4-((2-methylbenzo[d]thiazol-5-yl)amino)quinazolin-6-yl)oxy)piperidin-1-yl)prop-2-en-1-one]	> 1000 nM	> 1000 nM	≤ 200 nM	200 to 1000 nM	> 1000 nM	200 to 1000 nM
C=CC(=O)N1CCC(Oc2cc3c(Nc4cccc5c4CCC5)ncnc3cc2OC)CC1 [Compound 156, 1-(4-((4-((2,3-dihydro-1H-inden-4-yl)amino)-7-methoxyquinazolin-6-yl)oxy)piperidin-1-yl)prop-2-en-1-one]	200 to 1000 nM	≤ 200 nM	≤ 200 nM	≤ 200 nM	≤ 200 nM	200 to 1000 nM

Other lines, results leading:

EC50 (Ba/F3 stable cells [1])	EC50 (Ba/F3 stable cells [2])	EC50 (Ba/F3 stable cells [3])	EC50 (Ba/F3 stable cells [4])	EC50 (Ba/F3 stable cells [5])	EC50 (Ba/F3 stable cells [6])	Compound
> 1000 nM	200 to 1000 nM	≤ 200 nM	200 to 1000 nM	200 to 1000 nM	200 to 1000 nM	C=CC(=O)N1CCC(Oc2cc3c(Nc4ccc5cccnc5c4)ncnc3cc2OC)CC1 [Compound 141, 1-(4-((7-methoxy-4-(quinolin-7-ylamino)quinazolin-6-yl)oxy)piperidin-1-yl)prop-2-en-1-one]
> 1000 nM	≤ 200 nM	≤ 200 nM	200 to 1000 nM	200 to 1000 nM	200 to 1000 nM	C=CC(=O)N1CCC(Oc2cc3c(Nc4ccc5ncccc5c4)ncnc3cc2OC)CC1 [Compound 143, 1-(4-((7-methoxy-4-(quinolin-6-ylamino)quinazolin-6-yl)oxy)piperidin-1-yl)prop-2-en-1-one]
200 to 1000 nM	≤ 200 nM	≤ 200 nM	200 to 1000 nM	200 to 1000 nM	200 to 1000 nM	C=CC(=O)N1CCC(Oc2cc3c(Nc4cccc5cccnc45)ncnc3cc2OC)CC1 [Compound 146, 1-(4-((7-methoxy-4-(quinolin-8-ylamino)quinazolin-6-yl)oxy)piperidin-1-yl)prop-2-en-1-one]
≤ 200 nM	≤ 200 nM	≤ 200 nM	200 to 1000 nM	≤ 200 nM	≤ 200 nM	C=CC(=O)N1CCC(Oc2cc3c(Nc4ccc5ccccc5c4)ncnc3cc2OC)CC1 [Compound 148, 1-(4-((7-methoxy-4-(naphthalen-2-ylamino)quinazolin-6-yl)oxy)piperidin-1-yl)prop-2-en-1-one]
≤ 200 nM	≤ 200 nM	≤ 200 nM	≤ 200 nM	≤ 200 nM	≤ 200 nM	C=CC(=O)N1CCC(Oc2cc3c(Nc4cccc5ccccc45)ncnc3cc2OC)CC1 [Compound 149, 1-(4-((7-methoxy-4-(naphthalen-1-ylamino)quinazolin-6-yl)oxy)piperidin-1-yl)prop-2-en-1-one]
> 1000 nM	200 to 1000 nM	≤ 200 nM	> 1000 nM	200 to 1000 nM	≤ 200 nM	C=CC(=O)N1CCC(Oc2cc3c(Nc4ccc5ccccc5n4)ncnc3cc2OC)CC1 [Compound 158, 1-(4-((7-methoxy-4-(quinolin-2-ylamino)quinazolin-6-yl)oxy)piperidin-1-yl)prop-2-en-1-one]
> 1000 nM	200 to 1000 nM	≤ 200 nM	200 to 1000 nM	200 to 1000 nM	200 to 1000 nM	C=CC(=O)N1CCC(Oc2cc3c(Nc4cc5ccccc5cn4)ncnc3cc2OC)CC1 [Compound 159, 1-(4-((4-(isoquinolin-3-ylamino)-7-methoxyquinazolin-6-yl)oxy)piperidin-1-yl)prop-2-en-1-one]
> 1000 nM	≤ 200 nM	≤ 200 nM	> 1000 nM	200 to 1000 nM	200 to 1000 nM	C=CC(=O)N1CCC(Oc2cc3c(Nc4ccc5ccccc5c4Cl)ncnc3cc2OC)CC1 [Compound 160, 1-(4-((4-((1-chloronaphthalen-2-yl)amino)-7-methoxyquinazolin-6-yl)oxy)piperidin-1-yl)prop-2-en-1-one]
> 1000 nM	200 to 1000 nM	≤ 200 nM	> 1000 nM	200 to 1000 nM	200 to 1000 nM	C=CC(=O)N1CCC(Oc2cc3c(Nc4nccc5ccccc45)ncnc3cc2OC)CC1 [Compound 161, 1-(4-((4-(isoquinolin-1-ylamino)-7-methoxyquinazolin-6-yl)oxy)piperidin-1-yl)prop-2-en-1-one]
